Reference: patent US7572436B1, “Thionin as an antineoplastic and immunostimulant” (priority 2000, dated 2009)
“And” between values parts separate entries of the source, which are not always exact repeats. Identical values can stand only once. Like-named read-outs stand apart in the source and are kept apart here. Where no end group is shown, it is not given here.

How the values were obtained:
DU-145 Target Cells = assay: Natural killer assay (^51Cr release), human PBLs against DU-145; type: cell-based; settings: PT 0.05 μg/ml
Description: Murine spleen cell and human peripheral blood lymphocytes (PBLs) were obtained as described in the procedure for the Mitogen Assay.
Drugs and control substances were added, using sterile techniques, to the wells of a 24-well plate, using RPMI-10 as the culture medium. Spleen cells or human lymphocytes were added last to the wells at a concentration of 4×10^6 cells per 2 ml total volume in the well. Splenocyte incubation was usually three days (65-70 hours) while human lymphocyte stimulation may be extended to four to five days. The cells were incubated at 37° C. in a humidified 5% CO2 incubator.
On the day of harvest, 10^7 target cells were labeled with 150 μCi of ^51Cr (sodium chromate). Target cells used were YAC-I (murine Lymphoma) or K562 (human chronic myelogenous leukemia). […]
The 96-well plate was centrifuged at 150×g for four minutes to gently bring the effector and target cells in contact. […] The percent release was calculated using the following formula: […]
Addition of PT stimulates both murine splenocytes and human PBLs to kill tumor cells through lysis. […] After a 30-minute incubation, the radioactivity in the supernatant fluid was counted as a measure of lysis of the target cells, which reflects NK activity. […]

[1] = system: murine Balb/C splenocytes; assay: Binding of ^125I-labeled PT to mouse spleen cells; settings: for Kd: ^125I-PT
Source text: Splenocytes are isolated from the spleens of selected mice (as described herein), treated to remove red cells, resuspended in PBS after washing, and counted using Trypan Blue exclusion. The average yield of spleen cells (splenocytes) from one spleen is 1−1.5×10^8 cells. A desired concentration of cells per sample tube in the binding assay is more than 5×10^6 cells/ml.
The protocol for the binding assay has been previously described (Vernon and Rogers, Toxicon 30:711-721, 1992). Reactions were carried out in a total volume of 400 μl in each microcentrifuge tube (160 μl PBS with ^125I-labeled PT at varying concentrations with 240 μl of spleen cell suspensions).
A total of 10^7 spleen cells were placed in each of the reaction microfuge tubes, and allowed to equilibrate at room temperature for five minutes. To each tube was added radiolabeled thionin (e.g., ^125I-PT) in amounts from 0.1 to 20 μg/ml. The radiolabeled PT used in the experiments contained approximately 10^6 counts/minute (0.3 μCi) per μg PT. The suspension was incubated at room temperature for 10 minutes, then placed on ice for an additional 10 minutes. The tubes were then centrifuged to pellet the cells.
The radioactivity in the supernatant fluid was determined from an aliquot removed from the tube. The plastic pipette tip used to transfer the aliquot was also put in the vial and counted in a gamma ray counter along with the transferred aliquot of the supernatant fluid, since this tip may absorb PT from the aliquot during transfer. The radioactivity amount determined represents the “free” PT, not bound to a cell.
After removal of the entire supernatant, the sedimented cells were washed twice in PBS, and the entire final washed suspension of cells was transferred to a vial for radioactivity counting. As with measurement of radioactivity in the supernatant, the pipette tip used to transfer the cell sample was added to the vial to include any PT that might be bound to the plastic tip. This measures the total “bound” PT.
Non-specific binding was determined in the presence of a 100-fold excess of non-radioactive iodinated PT. The binding data reported were obtained by subtracting the non-specific from the total binding. Triplicate assays were performed for each concentration of PT employed.

Pyrularia thionin (KSCCRNTWARNCYNVCRLPGTISREICAKKCDCKIISGTTCPSDYPK; ends and bridges not checked; also: labeled with 125I) [PT]
% Cytotoxicity (DU-145 Target Cells): 11.5 ± 1.1%
Kd ([1]; PT up to 1 μg/ml, read-out: dissociation constant, high affinity binding site): 65 nM and ~65 nM
Kd ([1]; PT up to 20 μg/ml, read-out: dissociation constant, low affinity binding site): 1600 nM and ~1600 nM
number of sites per cell, high affinity site ([1]; murine spleen cells): 1.4×10^5
number of sites per cell, low affinity site ([1]; murine spleen cells): 1×10^6
